Laboratory results taken from patent US12685309B2, “Agrochemical formulations” (BASF CORPORATION, priority 2020, dated 2026).

Conditions: for Appearance of mixture with water (solubility): 400 g mixed with water and stirred, 400 g/l mixture
Text: 400 g of Dicamba with the 93.8 wt % purity as defined above in the experimental part were mixed with water and stirred to obtain a 400 g/l mixture of dicamba.
400 g of dicamba with a purity of 98 wt % were mixed with water.

Row | SMILES | Appearance of mixture with water (solubility) | Stability of the aqueous mixture on storage (400 g/l mixture in water, room temperature, two weeks)
1 | COc1c(Cl)ccc(Cl)c1C(=O)[O-].[K+] [Dicamba with the 93.8 wt % purity, potassium dicamba] | turbid mixture | serum formation and sedimentation of the undissolved components
2 | COc1c(Cl)ccc(Cl)c1C(=O)O [dicamba with a purity of 98 wt %, 3,6-dichloro-2-methoxybenzoic acid] | clear solution | –
